Legend:
NEK2 = target: T1, NEK2 (Homo sapiens, UniProt P51955); assay: NanoBRET Target Engagement Intracellular Kinase Assay for NEK2 in transfected HEK293 cells; type: cell-based; conditions: NEK2 target engagement, read-out: NanoBRET IC50
T1 construct: expressed in transfected cells; host or cells: HEK293
T1 sequence (P51955 1-445): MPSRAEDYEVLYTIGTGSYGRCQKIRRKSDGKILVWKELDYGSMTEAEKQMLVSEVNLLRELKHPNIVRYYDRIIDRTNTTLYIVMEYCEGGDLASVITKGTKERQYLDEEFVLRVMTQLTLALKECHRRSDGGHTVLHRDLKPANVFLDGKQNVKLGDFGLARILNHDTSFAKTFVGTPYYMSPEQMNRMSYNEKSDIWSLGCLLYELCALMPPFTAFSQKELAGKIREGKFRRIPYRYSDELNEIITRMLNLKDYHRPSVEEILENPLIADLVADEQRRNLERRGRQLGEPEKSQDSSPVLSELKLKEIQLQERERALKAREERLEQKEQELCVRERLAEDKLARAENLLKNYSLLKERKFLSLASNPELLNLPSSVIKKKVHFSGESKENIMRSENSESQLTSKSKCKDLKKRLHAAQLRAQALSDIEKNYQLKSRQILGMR
Protocol: In this example, the compounds described herein were tested for their inhibitory activity against NEK2 using a model of in vivo activity by the NanoBRET™ Target Engagement Intracellular Kinase Assay (Reaction Biology Corp.). The assay was performed according to the manufacturer's protocol, as detailed below.
HEK293 cells were cultivated (70-80% confluence) prior to the assay. The sample was trypsinized and HEK293 cells were collected.
To prepare lipid: DNA complexes, a 10 μg/ml solution of DNA in Opti-MEM without serum was prepared that consisted of the following ratios of carrier DNA and DNA encoding NanoLuc® fusion: 9.0 μg/ml of Transfection Carrier DNA, 1.0 μg/ml of NanoLuc fusion vector DNA and 1 ml of Opti-MEM without phenol red. The solution was mixed thoroughly. 30 μl of FuGENE HD Transfection Reagent was added into each milliliter of DNA mixture to form lipid: DNA complex. The sample was mixed by inversion 10 times and then incubated at ambient temperature for 20 minutes to allow complexes to form. In a sterile, conical tube, 1 part of lipid:DNA complex was mixed with 20 parts of HEK293 cells in suspension. The resulting sample was mixed gently by inversion 5 times. The cell and lipid: DNA complex was dispensed into a sterile tissue culture dish and incubated for 22-24 hours.
Each test compound is delivered from the compound source plate to the wells of 384-well white NBS plate by Echo 550.
Step 3. Preparation of Cells with NanoBRET™ Tracer K5 Reagent:
The medium was removed from the dish with the transfected HEK293 cells via aspiration, trypsinized and cells were allowed to dissociate from the dish. Trypsin was neutralized using medium containing serum and centrifuged at 200×g for 5 minutes to pellet the cells. The cell density was adjusted to 2×10^5 cells/ml in Opti-MEM without phenol red.
The Complete 20× NanoBRET™ Tracer K5 Reagent with Tracer Dilution Buffer was prepared according to the manufacturer's instructions. One part of Complete 20× NanoBRET™ Tracer Reagent was added to 20 parts of cells in the tube. The sample was mixed gently by inversion 10 times. Next, the cell suspension was dispensed into white, 384-well NBS plates with a final tracer K5 concentration of 2 μM. The plate was incubated at 37° C., 5% CO2 for 1 hour. A separate set of samples without tracer were prepared for background correction steps.
The plate was removed from the incubator and equilibrated to room temperature for 15 minutes. The 3× Complete Substrate plus Inhibitor Solution in Assay Medium (Opti-MEMR I Reduced Serum Medium, no phenol red) was prepared just before measuring BRET. The 3× Complete Substrate plus Inhibitor Solution was added to each well of the 384-well plate and incubated for 2-3 minutes at room temperature. The donor emission wavelength (460 nm) and acceptor emission wavelength (600 nm) were measured using the Envision 2104 plate reader.
To generate raw BRET ratio values, the acceptor emission value (600 nm) was divided by the donor emission value (460 nm) for each sample. To correct for background, the BRET ratio in the absence of tracer (average of no-tracer control samples) was subtracted from the BRET ratio of each sample.
BRET Ratio=[(Acceptor sample÷Donor sample)−(Acceptor no-tracer control÷Donor no-tracer control)]

[1] = target: T2, NEK2 kinase (Accession No. NP-002488) (Homo sapiens, UniProt P51955); assay: HotSpot Kinase Assay, NEK2; type: biochemical; conditions: HotSpot Kinase Assay; read-out: NEK2 IC50
T2 construct: purchased ThermoFisher Scientific (Invitrogen)
T2 sequence (P51955 1-445): T1 sequence (P51955 1-445)
Protocol: In this example, the compounds described herein were tested for their inhibitory activity against NEK2 and/or Aurora A using the HotSpot™ Kinase Assay (Reaction Biology Corp.). The assay was performed according to the manufacturer's protocol, as detailed below. The NEK2 kinase (Accession No. NP-002488) and Aurora A kinase (Accession No. NP-940839) for use in these assays was sourced from ThermoFisher Scientific (Invitrogen).
The base Reaction Buffer used in this experiment contained the following: 20 mM Hepes (pH 7.5), 10 mM MgCl2, 1 mM EGTA, 0.02% Brij™-35, 0.02 mg/ml BSA, 0.1 mM Na3VO4, 2 mM DTT, and 1% DMSO. The required cofactors were added individually to each kinase reaction.
Testing compounds were dissolved in 100% DMSO to a specific concentration. The serial dilution was conducted by Integra Viaflo Assist in DMSO.
The substrate was prepared in freshly prepared Reaction Buffer. The required cofactors were delivered to the substrate solution described above. NEK2 kinase or Aurora A kinase was delivered to the substrate solution and gently mixed. Next, the compounds in 100% DMSO were transferred to the kinase reaction mixture by Acoustic technology (Echo550; nanoliter range) and incubated for 20 min at room temperature. ^33P-ATP (Specific activity 10 μCi/μl) was delivered into the reaction mixture to initiate the reaction. The reaction was incubated for 2 hours at room temperature. Radioactivity was then detected by the filter-binding method. Kinase activity data were expressed as the percent remaining kinase activity in test samples compared to vehicle (dimethyl sulfoxide) reactions. IC50 values and curve fits were obtained using Prism (GraphPad Software).

For `N#Cc1c(Nc2nc(Nc3ccc(N4CCNCC4)cc3)ncc2Cl)cccc1OCc1ccccc1F` [Compound 16, 2-((5-chloro-2-((4-(piperazin-1-yl)phenyl)amino)pyrimidin-4-yl)amino)-6-((2-fluorobenzyl)oxy)benzonitrile], the IC50 (NEK2) was ≤ 50 nM and the IC50 [1] was ≤ 5 nM.
